Measurements as given in patent US10913710B2, “Benzene disulfonamide for the treatment of cancer” (priority 2017, dated 2021).

Columns and labels:
[1] = test system: colorectal cancer cell lines (HCT-116, Hke3, SW480, Hkh2, DiFi, HT29); assay: Apoptosis / cell viability assay (7-AAD staining, flow cytometry); format: cell-based, human; conditions: all tested cell lines (Hkh2, DiFi, HT29)
Description: Apoptosis assays are performed on a LSR II flow cytometer (BD Bio-science). For this, cells are seeded in 6-well plates with an amount of 2×10^5 cells per well. Cells are treated with different concentrations of compound 19 (Deltasonamide 2) for 24 h. DMSO is used as a control. Subsequently, the supernatant is collected in FACS vials and the cells are washed with 1 mL PBS. Afterwards, cells are detached with 0.5 mL Accutase™ (EMD Millipore Corporation). The detached cells are resuspended in 1 mL PBS and transferred to the respective FACS vials. The vials are centrifuged at 200 g for 5 min. The supernatant is discarded and the cells are washed twice with PBS. Cell pellets are re-suspended in 100 μL PBS containing 5 μL of 7-AAD. Samples are vortexed and incubated in the dark at RT for 15 min. Afterwards, 200 μL PBS are added and the samples are transferred to fresh FACS vials through filter lids. The samples are measured within one hour after transfer using 488 nm as excitation wave length and the emission filter 695/40. The measurements are acquired and gated with the BD FACSDiva™ software.

[2] = test system: colorectal cancer cell lines DiFi, HCT-116, Hke3, Hkh2, HT29 and SW480; assay: Real time cell analysis (RTCA) proliferation of colorectal cancer cell lines; format: cell-based, human
[3] = test system: human peripheral blood mononuclear cells (hPMPBC); assay: Cytotoxicity assay with human peripheral blood mononuclear cells; format: cell-based
Description: Cells were incubated with test substances at titrated concentrations ranging between 30 μM and 1.7 nM for 72 h. After the incubation period, the cells were fixed with 10% (wt/vol) trichloroacetic acid and stained for 30 min with sulforhodamine B (SRB) staining solution prior to removing unbound dye by washing repeatedly with 1% (vol/vol) acetic acid. The protein-bound dye is dissolved in 10 mM Tris base solution for OD (optical density) determination at 510 nm using a microplate reader.

[4] = biological target: T1, PDEδ (Homo sapiens (Human), UniProt O43924); assay: Fluorescence polarization competition binding assay: displacement titration of labeled Atorvastatin probe for KD; conditions: fluorescence polarization assay; activity classes; read-out: KD
Description: Example D.2: Displacement Titrations of Labeled Atorvastatin-Probe for the Determination of KD Values
Displacement Titrations of Labeled Atorvastatin-Probe for the Determination of KD Values:
The purification was followed by size exclusion gel filtration on a Superdex 75 S26/60 column using buffer A (25 mM Tris-HCl, pH 7.5, 150 mM NaCl and 3 mM DTE).

[5] = biological target: interaction between mCherry-PDE6δ and mCitrine-RheB (Homo sapiens (Human), UniProt O43924); assay: FLIM-FRET of mCitrine-RheB and mCherry-PDE6δ interaction in living MDCK cells; format: cell-based; conditions: fit of dose-response of interacting fraction α, ± s.e.m., read-out: apparent "in-cell" KD
[6] = in vitro; conditions: human, Caco-2, pH 6.5
Description: Caco-2 Permeability Assay:
The compound concentration was measured in the receiver as well as the donor well.

[7] = test system: mCitrine-KRas in MiaPaCa-2 cells; assay: KRas localization analysis by confocal microscopy; format: cell-based, human; conditions: 5 μM; MiaPaCa-2 cells ectopically expressing mCitrine-KRas
Description: Panc-TU-1, MiaPaCa-2, PANC-1 and BxPC-3 cell lines were cultured in DMEM supplemented with 10% fetal calf serum, 1% L-glutamine (PAN-Biotech) and 1% non-essential amino acids (PAN-Biotech). The cells were maintained in a humidified incubator at 37° C. and 5% CO2. For microscopy, cells were seeded in four-well Lab-Tek chambers (Thermo Scientific) in DMEM without phenol red, supplemented with 25 mM HEPES. Transfection was performed with either Effectene (Qiagen) or Lipofectamine 2000 (Invitrogen). Confocal images were acquired with a confocal laser-scanning microscope (FV1000, Olympus). For detection of mCitrine-RheB and mCitrine-KRas, the sample was excited using the 488 nm wavelength of an argon laser. Fluorescence signal was collected through an oil immersion objective (×60/1.35 UPlanSApo, Olympus) and spectrally filtered by a band pass filter from 500 nm to 550 nm. For detection of mCherry-PDEδ, a 561 nm diode laser was used for excitation. The fluorescence emission was spectrally filtered by a band pass filter from 600 to 700 nm. Confocal images of cells were segmented into plasma membrane and cytoplasm whereby the plasma membrane segment contained one third of all pixels. The mean intensity of plasma membrane and cytoplasm were normalized to the total mean intensity of each cell at each time point (FIG. 4C).

[8] = test system: Panc-Tu-I cells; assay: Real time cell analysis (RTCA) proliferation; format: cell-based, human
Description: (§1) Panc-TU-1, MiaPaCa-2, PANC-1 and BxPC-3 cell lines were cultured in DMEM supplemented with 10% fetal calf serum, 1% L-glutamine (PAN-Biotech) and 1% non-essential amino acids (PAN-Biotech). The cells were maintained in a humidified incubator at 37° C. and 5% CO2. For microscopy, cells were seeded in four-well Lab-Tek chambers (Thermo Scientific) in DMEM without phenol red, supplemented with 25 mM HEPES. Transfection was performed with either Effectene (Qiagen) or Lipofectamine 2000 (Invitrogen). RTCA measurements of Panc-TU-1, MiaPaCa-2, PANG-1 and BxPC-3 cell lines were performed on a Dual Plate xCELLigence instrument (Roche Applied Science, Indianapolis, Ind.). This device measures a dimensionless cell index which is based on impedance. […] After seeding, cells were allowed to settle for 15 min at room temperature before insertion into the xCELLigence instrument in a humidified incubator at 37° C. with 5% CO2. […] The impedance was measured in 15 min intervals for up to 100 h. Assays were performed in triplicates, each containing two technical duplicates. The cell index was normalized to 1 at the time point of drug administration.

[9] = test system: MiaPaCa-2 cells; assay: Real time cell analysis (RTCA) proliferation; format: cell-based, human
Description: as §1

[10] = biological target: T1, PDEδ; assay: Cellular thermal shift assay / thermal protein profiling in Jurkat cell lysate; conditions: 1 μM
[11] = biological target: RPL31 (Ribosomal Protein L31) (Homo sapiens (Human), UniProt P62899); assay: as above; conditions: read-out: shift in melting temperature
[12] = even at submicromolar concentrations

| SMILES | concentration showing unspecific toxicity [1] | proliferation (RTCA) ([2]; DiFi, HCT-116, Hke3, Hkh2, HT29 and SW480, even at lower micromolar concentrations) | concentrations showing growth inhibitory effect and reduced cell viability ([2]; cell lines containing oncogenic KRas mutations (HCT-116, Hke3, and SW480)) [µM] | concentration up to which hPMBCs proliferation is not impaired [3] [µM] | Kd [4] [nM] | Kd [5] [nM] | Papp A→B at 2 h, 10 µM [6] [×10⁻⁶ cm/s] | Papp B→A at 2 h, 10 µM [6] [×10⁻⁶ cm/s] | efflux ratio at 2 h, 10 μM [6] | KRas plasma membrane localization [7] | reduction of growth ([8]; at 1.5 μM) | proliferation (RTCA) [8, 12] | reduction of growth rate ([9]; at 750 nM) | proliferation (RTCA) [9, 12] | selectivity of protein engagement (only PDE6δ and RPL31 engaged) ([10]; 5492 proteins identified) | higher signal intensities of soluble PDEδ compared to DMSO controls ([10]; […]) | ΔTm at 1 µM [11] [°C] |
| --- | --- | --- | --- | --- | --- | --- | --- | --- | --- | --- | --- | --- | --- | --- | --- | --- | --- |
| CNc1nccc(CN([C@H]2CC[C@H](N)CC2)S(=O)(=O)c2ccc(S(=O)(=O)N(Cc3ccc(Cl)cc3)C3CCCC3)cc2)n1 [Compound 19, N1-((trans)-4-aminocyclohexyl)-N4-(4-chlorobenzyl)-N4-cyclopentyl-N1-((2-(methylamino)pyrimidin-4-yl)methyl)benzene-1,4-disulfonamide] | above 6 μM | strongly reduced proliferation | 1.5 to 3 | ≥ 30 | 1 to 30 | 61 ± 5 | 0.9 | 2.7 | 2.9 | loss of KRas plasma membrane (PM) localization | about 50% | strongly reduced proliferation | about 50% | strongly reduced proliferation |  |  |  |
| Nc1cc(CN(CC2CCNCC2)S(=O)(=O)c2ccc(S(=O)(=O)N(Cc3ccc(Cl)cc3)C3CCCC3)cc2)ccc1C(=O)O [Compound 22, 2-amino-4-(((4-(N-(4-chlorobenzyl)-N-cyclopentylsulfamoyl)-N-(piperidin-4-ylmethyl)phenyl)sulfonamido)methyl)benzoic Acid] |  |  |  |  | 1 to 30 |  | 0.9 | 0.6 | 0.6 |  |  |  |  |  | very selective inhibitor | 26-28% | 3 |
